In the supplement of paper PMC10307832:

compound: C[C@]1(c2nc3c(C(N)=O)cccc3[nH]2)CCCN1 [Veliparib] + C[C@]1(O)C[C@@H](c2nc(-c3ccc4ccc(-c5ccccc5)nc4c3)c3c(N)nccn32)C1 [Linsitinib] (partner 1 µM); test: relative viability (nuclei count vs DMSO), 5 days (fraction); higher = more cells survive; details: first compound 0.02 µM
Method in brief: (§1)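 Five library-drug doses in √10 steps were combined with a fixed anchor-drug dose, or a single drug was given alone, by pin tool to lung cancer cell lines in 1536-well plates the day after seeding. Nuclei were stained and counted after 5 days. Relative viability is the nuclei count in treated wells over that in vehicle wells, taken as the median of duplicate plates.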

Cell Line | relative viability
NCI-H441 | 0.506
HOP-62 | 1
NCI-H2347 | 0.999
HARA | 1.15
NCI-H1915 | 1.07
SK-MES-1 | 1.05
NCI-H23 | 0.775
NCI-H661 | 0.4
CAL-12T | 0.356
NCI-H1944 | 1.21
NCI-H322M | 1.03

same assay, conditions: first compound 0.06325 µM

Cell Line | relative viability
NCI-H441 | 0.589
HOP-62 | 0.923
NCI-H2347 | 0.831
HARA | 0.992
NCI-H1355 | 0.746
NCI-H1915 | 1.07
SK-MES-1 | 1.03
NCI-H23 | 0.504
NCI-H661 | 0.59
CAL-12T | 0.823
NCI-H1944 | 1.17
NCI-H322M | 0.864

same assay, conditions: first compound 0.2 µM

Cell Line | relative viability
NCI-H441 | 0.563
HOP-62 | 0.738
NCI-H2347 | 0.912
HARA | 0.908
NCI-H1355 | 0.832
NCI-H1915 | 1.02
SK-MES-1 | 1.06
NCI-H23 | 0.574
NCI-H661 | 0.604
CAL-12T | 0.775
NCI-H1944 | 1.06
NCI-H322M | 0.885

same assay, conditions: first compound 0.6325 µM

Cell Line | relative viability
NCI-H441 | 0.584
HOP-62 | 0.987
NCI-H2347 | 0.896
HARA | 0.743
NCI-H1355 | 0.76
NCI-H1915 | 0.954
SK-MES-1 | 0.913
NCI-H23 | 0.505
NCI-H661 | 0.496
CAL-12T | 0.765
NCI-H1944 | 1.19
NCI-H322M | 0.826

same assay, conditions: first compound 2 µM

Cell Line | relative viability
NCI-H441 | 0.541
HOP-62 | 0.983
NCI-H2347 | 0.947
HARA | 1.07
NCI-H1355 | 0.849
NCI-H1915 | 0.995
SK-MES-1 | 1.09
NCI-H23 | 0.65
NCI-H661 | 0.666
CAL-12T | 0.817
NCI-H1944 | 1.12
NCI-H322M | 0.972

compound: C[C@]1(c2nc3c(C(N)=O)cccc3[nH]2)CCCN1 [Veliparib] + CC(=O)Nc1cccc(-n2c(=O)n(C3CC3)c(=O)c3c(Nc4ccc(I)cc4F)n(C)c(=O)c(C)c32)c1 [Trametinib] (partner 0.02 µM); test: as above; details: first compound 0.02 µM
Method in brief: as §1

Cell Line | relative viability
NCI-H441 | 0.489
HOP-62 | 0.375
NCI-H2347 | 0.294
HARA | 0.745
NCI-H1355 | 0.368
NCI-H1915 | 0.309
SK-MES-1 | 0.531
NCI-H23 | 0.448
NCI-H661 | 0.525
CAL-12T | 0.42
NCI-H1944 | 0.432

same assay, conditions: first compound 0.06325 µM

Cell Line | relative viability
NCI-H441 | 0.497
HOP-62 | 0.322
NCI-H2347 | 0.254
NCI-H1355 | 0.282
NCI-H1915 | 0.289
SK-MES-1 | 0.54
NCI-H23 | 0.413
NCI-H661 | 0.646
CAL-12T | 0.378
NCI-H1944 | 0.398
NCI-H322M | 0.52

same assay, conditions: first compound 0.2 µM

Cell Line | relative viability
NCI-H441 | 0.488
HOP-62 | 0.351
NCI-H2347 | 0.26
HARA | 0.949
NCI-H1355 | 0.438
NCI-H1915 | 0.302
SK-MES-1 | 0.525
NCI-H23 | 0.509
NCI-H661 | 0.584
CAL-12T | 0.328
NCI-H1944 | 0.418
NCI-H322M | 0.465

same assay, conditions: first compound 0.6325 µM

Cell Line | relative viability
NCI-H441 | 0.477
HOP-62 | 0.39
NCI-H2347 | 0.364
HARA | 0.796
NCI-H1355 | 0.422
NCI-H1915 | 0.292
SK-MES-1 | 0.53
NCI-H23 | 0.4
NCI-H661 | 0.543
CAL-12T | 0.256
NCI-H1944 | 0.418
NCI-H322M | 0.5

same assay, conditions: first compound 2 µM

Cell Line | relative viability
NCI-H441 | 0.568
HOP-62 | 0.407
NCI-H2347 | 0.288
HARA | 0.798
NCI-H1355 | 0.447
NCI-H1915 | 0.291
SK-MES-1 | 0.627
NCI-H23 | 0.469
NCI-H661 | 0.64
CAL-12T | 0.374
NCI-H1944 | 0.405
NCI-H322M | 0.494

compound: COC1=CC=C(C=C1)CN2C=CC3=C2C=C(C=C3)C(=O)NO + Cc1nc(NC(=O)N2CCC[C@H]2C(N)=O)sc1-c1ccnc(C(C)(C)C(F)(F)F)c1 [Alpelisib] (partner 2 µM); test: as above; details: first compound 0.08 µM
Method in brief: as §1

Cell Line | relative viability
NCI-H441 | 0.711
HOP-62 | 0.71
NCI-H2347 | 0.763
HARA | 0.149
NCI-H1355 | 0.793
NCI-H1915 | 1.02
SK-MES-1 | 0.924
NCI-H23 | 0.535
CAL-12T | 1.22

same assay, conditions: first compound 0.253 µM

Cell Line | relative viability
NCI-H441 | 0.8
HOP-62 | 0.996
NCI-H2347 | 1.14
HARA | 0.851
NCI-H1355 | 0.892
NCI-H1915 | 1.07
SK-MES-1 | 0.946
NCI-H23 | 0.834
NCI-H661 | 0.464
CAL-12T | 1.31
NCI-H1944 | 0.897
NCI-H322M | 0.726

same assay, conditions: first compound 0.8 µM

Cell Line | relative viability
NCI-H441 | 0.644
HOP-62 | 0.985
NCI-H2347 | 1.03
HARA | 0.765
NCI-H1355 | 0.905
NCI-H1915 | 1.06
SK-MES-1 | 0.861
NCI-H23 | 0.643
NCI-H661 | 0.595
CAL-12T | 1.19
NCI-H1944 | 0.731
NCI-H322M | 0.769

same assay, conditions: first compound 2.53 µM

Cell Line | relative viability
NCI-H441 | 0.917
HOP-62 | 0.932
NCI-H2347 | 1.18
HARA | 0.917
NCI-H1355 | 0.883
NCI-H1915 | 1.08
SK-MES-1 | 0.76
NCI-H23 | 0.737
NCI-H661 | 0.512
CAL-12T | 1.19
NCI-H1944 | 0.774
NCI-H322M | 0.845

same assay, conditions: first compound 8 µM

Cell Line | relative viability
NCI-H441 | 0.554
HOP-62 | 0.947
NCI-H2347 | 1.01
HARA | 0.693
NCI-H1355 | 0.901
NCI-H1915 | 1.02
SK-MES-1 | 0.823
NCI-H23 | 0.756
NCI-H661 | 0.626
CAL-12T | 1.24
NCI-H1944 | 0.795
NCI-H322M | 0.656

compound: C[C@]1(c2nc3c(C(N)=O)cccc3[nH]2)CCCN1 [Veliparib] + CCNC(=O)c1noc(-c2cc(C(C)C)c(O)cc2O)c1-c1ccc(CN2CCOCC2)cc1 [Luminespib] (partner 0.01 µM); test: as above; details: first compound 0.02 µM
Method in brief: as §1

Cell Line | relative viability
NCI-H441 | 0.316
HOP-62 | 0.831
NCI-H2347 | 0.484
HARA | 0.82
NCI-H1915 | 0.799
SK-MES-1 | 0.827
NCI-H23 | 0.168
NCI-H661 | 0.863
CAL-12T | 0.348
NCI-H1944 | 0.698

same assay, conditions: first compound 0.06325 µM

Cell Line | relative viability
NCI-H441 | 0.288
HOP-62 | 0.858
NCI-H2347 | 0.54
HARA | 0.778
NCI-H1355 | 0.543
NCI-H1915 | 0.6
SK-MES-1 | 0.467
NCI-H661 | 0.931
CAL-12T | 0.147
NCI-H1944 | 0.618
NCI-H322M | 0.814

same assay, conditions: first compound 0.2 µM

Cell Line | relative viability
NCI-H441 | 0.377
HOP-62 | 0.783
NCI-H2347 | 0.649
HARA | 0.782
NCI-H1355 | 0.664
NCI-H1915 | 0.647
SK-MES-1 | 0.897
NCI-H23 | 0.251
NCI-H661 | 0.839
CAL-12T | 0.522
NCI-H1944 | 0.633
NCI-H322M | 0.915

same assay, conditions: first compound 0.6325 µM

Cell Line | relative viability
NCI-H441 | 0.339
HOP-62 | 0.669
NCI-H2347 | 0.547
HARA | 0.639
NCI-H1355 | 0.658
NCI-H1915 | 0.553
SK-MES-1 | 0.735
NCI-H23 | 0.24
NCI-H661 | 0.785
CAL-12T | 0.266
NCI-H1944 | 0.613
NCI-H322M | 0.855

same assay, conditions: first compound 2 µM

Cell Line | relative viability
NCI-H441 | 0.375
HOP-62 | 0.836
NCI-H2347 | 0.427
HARA | 0.416
NCI-H1355 | 0.62
NCI-H1915 | 0.596
SK-MES-1 | 0.898
NCI-H23 | 0.228
NCI-H661 | 0.934
CAL-12T | 0.155
NCI-H1944 | 0.657
NCI-H322M | 0.848
